Reference: patent publication EP0395653B1, “SYNOVIAL PHOSPHOLIPASES” (ELI LILLY AND COMPANY, priority 1987, dated 1989)

Experiments:
sPLA₂ type B = test: effect of Tris or Na deoxycholate on hydrolytic activity; assay type: biochemical, human
sPLA₂ type A = sPLA₂ type A (Homo sapiens, UniProt P14555); conditions: 0.5 M Tris
highly purified PLA₂ = biological target: T1, highly purified PLA₂ (Homo sapiens, UniProt P14555); test: effect of SDS on rate of hydrolysis of phosphatidylcholine (Shakir's method); assay type: biochemical; conditions: of initial enzyme activity
T1 construct: from tissue; host or cells: pooled synovial fluid (CM Sephadex C50, Sephadex G75, preparative SDS-PAGE)
T1 sequence (P14555 21-144): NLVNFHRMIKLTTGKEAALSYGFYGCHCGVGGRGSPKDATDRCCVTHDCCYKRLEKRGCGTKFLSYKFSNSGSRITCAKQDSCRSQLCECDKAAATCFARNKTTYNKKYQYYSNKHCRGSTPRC
Method: Determination of phospholipase activities towards the radiolabeled synthetic substrates, dipalmitoylphosphatidylcholine, and 2-linoleoyl-1-palmitoylphosphatidylethanolamine, was carried out as described by Shakir, (1981) Anal Biochim 114:64-70. Standard incubation mixtures contained 750 nmol of phospholipid, 2 mM CaCl₂, 2 mM sodium deoxycholate (DOC), 0.09% Triton X-100, and enzyme protein in 0.1 M Tris-HCl buffer in a total volume of 400 µl. Incubations were carried out at optimal pH (see below) for 1 h at 37°C in a shaking water bath. The reaction was stopped by addition of 2.0 ml of n-heptane-isopropanol-1 N sulfuric acid (1:4:0.1, v/v/v). Released fatty acids were extracted by the method of Shakir, (1981) Anal Biochim 114:64-70. PLA₂ activity is expressed as nmol of released fatty acid per mg of protein per h.
The effect of SDS on the rate of hydrolysis of phosphatidylcholine by highly purified PLA₂ was studied using Shakir's method, supra. SDS inhibited PLA₂ activity on a concentration-dependent manner. Inhibition of PLA₂ was 94 and 7% of initial enzyme activity at SDS concentrations of 1 mg/ml and 0.1 mg/ml, respectively. In evaluating the utility of preparative SDS-PAGE, recovery of enzyme from the slab gel was consistently between 95-100% of the total enzyme applied to the gel.

## sodium deoxycholate [Na deoxycholate]
sPLA₂ type B; 0.1% Na deoxycholate
  effect on hydrolytic activity of type B relative to type A: considerable stimulation

## NC(CO)(CO)CO [Tris]
sPLA₂ type B; 0.5 M Tris
  effect on hydrolytic activity of type B relative to type A: considerable stimulation
sPLA₂ type A
  effect on sPLA₂ type A activity: inhibited

## CCCCCCCCCCCCOS(=O)(=O)[O-].[Na+] [SDS, sodium dodecyl sulfate]
Highly purified PLA₂; SDS 0.1 mg/ml
  inhibition at 100 µg/mL: 7%
Highly purified PLA₂; SDS 1 mg/ml
  inhibition at 1000 µg/mL: 94%
